The values that follow come from patent US4116950A, “Analogs of human β-endorphin” (Hoffmann-La Roche Inc., priority 1978, dated 1978).

For one assay, the system named is guinea pig ileum. Briefly: Opiate activity by guinea pig ileum assay (in vitro). It counts as cell-based. Particulars: for relative potency: calculated using the IC50 of βh-endorphin as 100%; for IC50: guinea pig ileum assay. From the text: (§1) In vitro assay of opiate activity was by the guinea pig ileum method of Kosterlitz et al, Brit. J. Pharmacol. 39, 398 (1970) and in vivo assay in mice was by the tail-flick method of D'Amour and Smith, J. Pharmacol. Exp. Therap. 72, 74 (1941). The experimental procedure and method of calculation has been outlined by Loh et al., Proc. Natl. Acad. Sci. 73, 2895 (1976) and Tseng et al., Nature 263, 239 (1976).

In another assay the test system is mice. Briefly: Analgesic potency in mice by tail-flick method (in vivo). As to conditions: for AD50: mice, tail-flick; for relative potency: molar basis, AD50 of βh-endorphin as 100%.
Description: as §1
A general note: In hot-plate and tail-flick tests a longer latency is read as antinociception.

Usually IC50 stands for the concentration that inhibits the measured activity by half. For the substance “[Nle^5, Phe^27, Gly^31 ] - βh -EP [Peptide III]”, in the assay with guinea pig ileum, the relative potency is 118% and the IC50 came out at 38 nM. Besides, in the assay with mice (intracerebroventricular), the AD50 is 0.31(0.14-0.72) μg/mouse and the relative potency was found to be 35%. Further, in the assay on mice (intravenous), the AD50 result is “ca. 17.0 mg/kg” and the relative potency was 65%.

βh -endorphin [reference compound]: the relative potency in the assay with guinea pig ileum, in the assay with mice (intracerebroventricular) and in the assay with mice (intravenous) was 100% each time. Besides, half-maximal inhibition with guinea pig ileum (IC50) required 45 nM. The AD50 was 0.11(0.07-0.17) μg/mouse with mice (intracerebroventricular) and 11.4(6.4-19.6) mg/kg with mice (intravenous).

As for “[Ala^6,7, Phe^27, Gly^31 ] - βh -EP (YGGFMAAEKSQTPLVTLFKNAIIKNAFKKGG; Beta-endorphin; UniProt P01189 237-267, looked up, variant T6A S7A Y27F E31G) [Peptide II, analog of human β-endorphin substituted with Ala at 6 and 7, Phe at 27, Gly at 31]”, in the assay on guinea pig ileum, the relative potency is on record as 118% and the IC50 was 38 nM. Further, in the assay with mice (intracerebroventricular), the AD50 was 0.46(0.28-0.77) μg/mouse and the relative potency is 23%. Besides, in the assay on mice (intravenous), the AD50 is listed as 22.1(14.3-34.3) mg/kg and the relative potency is reported as 49%.

On to “[D-Thr^2, Phe^27, Gly^31 ] - βh EP [Peptide IV]”, for which the relative potency was 136% in the assay with guinea pig ileum, 21% in the assay on mice (intracerebroventricular) and 32% in the assay on mice (intravenous). The substance further displayed an IC50 in the assay on guinea pig ileum of 33 nM. The AD50 with mice (intracerebroventricular) is reported as 0.52(0.24-1.16) μg/mouse; with mice (intravenous), “ca. 32.0 mg/kg”.

As to “[Phe^27, Gly^31 ] - βh -EP (YGGFMTSEKSQTPLVTLFKNAIIKNAFKKGG; Beta-endorphin; UniProt P01189 237-267, looked up, variant Y27F E31G) [Peptide I, analog of human β-endorphin substituted with Phe at 27 and Gly at 31]”, in the assay on guinea pig ileum, the relative potency is on record as 128% and half-maximal inhibition (IC50) required 35 nM. Also, the “duration of analgesic activity” value with mice (after iv injection compared with icv injection) is “shorter than after icv injection”. Further, in the assay with mice (intracerebroventricular), the AD50 is recorded as 0.09(0.08-0.11) μg/mouse and the relative potency came to 119%. Also, in the assay with mice (intravenous), the AD50 is given as 7.5(3.4-16.5) mg/kg and the relative potency is on record as 148%. In addition, in the assay on mice (mouse, iv or icv, in words), the “in vivo analgesic activity compared with βh-endorphin” value was “greater in vivo analgesic activity than the natural peptide”.
